This is an account of results in US20240376123A1, “KRAS G12D INHIBITORS AND USES THEREOF” (SUZHOU ZANRONG PHARMA LIMITED, priority 2021, published 2024).

Structures are written as SMILES. pIC50: −log10 of the molar value. Where two headings read alike, the source gives them in different places.

The test system of the assay is p-ERK in PNAC-1/HPAC cell. Briefly: Phospho-ERK 1/2 assay (Table 1). It counts as cell-based. Conditions: Homo sapiens. As for the experimental part: Allow PNAC-1/HPAC cell growth in a T75 flask in DMEM and 10% 1 fetal calf serum (FCS; Gibco), using standard tissue culture procedures until ˜80% confluency is achieved. Day 1, seed 6000 cells/well in 384 well plate and incubate at 37° C., 5% CO2. Add diluted compound by Echo 550, final DMSO is 0.5%, incubate cells at 37° C., 5% CO2 for 3 hours. Then, remove medium and fix cells with 3.7% formaldehyde in PBS (PFA) by Apricot. Wash with PBS once. Permeabilize cells with cold 100% methanol and repeat wash once with PBS once. Add Li-Cor blocking buffer to each well and incubate 1.5 hours at RT. Remove blocking buffer and add primary antibody mixture (rabbit anti pERK, mouse anti GAPDH). Incubate at 4° C. overnight. Day 2, wash with PBST (Tween-20 in PBS) with total 3 times and then add secondary antibody mixture (goat anti rabbit 800CW (1:800 dilution in the combined solution) and goat anti mouse 680RD (1:800 dilution in the combined solution)), incubate for 60 minutes at RT away from light. Repeat washing with PBST 3 times. After final wash, centrifuge plate up-side-down at 1000 rpm to remove wash solution completely from wells. Before plate scanning, clean the bottom plate surface and the Odyssey* Imager scanning bed (if applicable) with moist, lint-free tissue to avoid any obstructions during scanning. Scan plate with detection in both 700 and 800 nm channels.

Where [1] appears, read: PNAC-1/HPAC cell, 3 hours compound incubation, read-out: p-ERK IC50.

With `C#Cc1c(F)ccc2cccc(-c3nc4c5c(nc(OC[C@@]67CCCN6C[C@H](F)C7)nc5c3F)N3CC5CCC(N5)C3CO4)c12` (stereo partly drawn) [Compound 8, (6R,9S)-2-(8-ethynyl-7-fluoronaphthalen-1-yl)-1-fluoro-12-(((2R,7aS)-2-fluorotetrahydro-1H-pyrrolizin-7a(5H)-yl)methoxy)-5a,6,7,8,9,10-hexahydro-5H-4-oxa-3,10a,11,13,14-pentaaza-6,9-methanonaphtho[1,8-ab]heptalene], the pIC50 under setting [1] is 8.05.
Regarding `C#Cc1c(F)ccc2cc(O)cc(-c3nc4c5c(nc(OC[C@@]67CCCN6C[C@H](F)C7)nc5c3F)N3C[C@@H]5CC[C@@H](N5)C3CO4)c12` (stereo partly drawn) [Compound 7, 5-ethynyl-6-fluoro-4-((6R,9S)-1-fluoro-12-(((2R,7aS)-2-fluorotetrahydro-1H-pyrrolizin-7a(5H)-yl)methoxy)-5a,6,7,8,9,10-hexahydro-5H-4-oxa-3,10a,11,13,14-pentaaza-6,9-methanonaphtho[1,8-ab]heptalen-2-yl)naphthalen-2-ol], the pIC50 under setting [1] is 7.47.
Regarding `Fc1c(-c2cccc3cccc(F)c23)nc2c3c(nc(OC[C@@]45CCCN4C[C@H](F)C5)nc13)N1C[C@@H]3CC[C@@H](N3)C1CO2` (stereo partly drawn) [Compound 15, (6R,9S)-1-fluoro-2-(8-fluoronaphthalen-1-yl)-12-(((2R,7aS)-2-fluorotetrahydro-1H-pyrrolizin-7a(5H)-yl)methoxy)-5a,6,7,8,9,10-hexahydro-5H-4-oxa-3,10a,11,13,14-pentaaza-6,9-methanonaphtho[1,8-ab]heptalene], under setting [1], the pIC50 was 6.66.
Take `C#Cc1cccc2cccc(-c3nc4c5c(nc(OC[C@@]67CCCN6C[C@H](F)C7)nc5c3F)N3C[C@@H]5CC[C@@H](N5)C3CO4)c12` (stereo partly drawn) [Compound 19, (6R,9S)-2-(8-ethynylnaphthalen-1-yl)-1-fluoro-12-(((2R,7aS)-2-fluorotetrahydro-1H-pyrrolizin-7a(5H)-yl)methoxy)-5a,6,7,8,9,10-hexahydro-5H-4-oxa-3,10a,11,13,14-pentaaza-6,9-methanonaphtho[1,8-ab]heptalene]: the pIC50 under setting [1] is 7.54.
For the compound `Fc1c(-c2cccc(Cl)c2C2CC2)nc2c3c(nc(OC[C@@]45CCCN4C[C@H](F)C5)nc13)N1C[C@@H]3CC[C@@H](N3)C1CO2` (stereo partly drawn) [Compound 23, (6R,9S)-2-(3-chloro-2-cyclopropylphenyl)-1-fluoro-12-(((2R,7aS)-2-fluorotetrahydro-1H-pyrrolizin-7a(5H)-yl)methoxy)-5a,6,7,8,9,10-hexahydro-5H-4-oxa-3,10a,11,13,14-pentaaza-6,9-methanonaphtho[1,8-ab]heptalene], the pIC50 under setting [1] is 6.43.
Turning to `Fc1ccc2cccc(-c3nc4c5c(nc(OC[C@@]67CCCN6C[C@H](F)C7)nc5c3F)N3C[C@@H]5CC[C@@H](N5)C3CO4)c2c1F` (stereo partly drawn) [Compound 14, (6R,9S)-2-(7,8-difluoronaphthalen-1-yl)-1-fluoro-12-(((2R,7aS)-2-fluorotetrahydro-1H-pyrrolizin-7a(5H)-yl)methoxy)-5a,6,7,8,9,10-hexahydro-5H-4-oxa-3,10a,11,13,14-pentaaza-6,9-methanonaphtho[1,8-ab]heptalene], the pIC50 under setting [1] is 6.85.
Still for that read-out and setting: with `Fc1cccc(-c2nc3c4c(nc(OC[C@@]56CCCN5C[C@H](F)C6)nc4c2F)N2C[C@@H]4CC[C@@H](N4)C2CO3)c1C1CC1` (stereo partly drawn) [Compound 21, (6R,9S)-2-(2-cyclopropyl-3-fluorophenyl)-1-fluoro-12-(((2R,7aS)-2-fluorotetrahydro-1H-pyrrolizin-7a(5H)-yl)methoxy)-5a,6,7,8,9,10-hexahydro-5H-4-oxa-3,10a,11,13,14-pentaaza-6,9-methanonaphtho[1,8-ab]heptalene] the figure was 5.91; with `C#Cc1c(F)ccc2cccc(-c3nc4c5c(nc(OCC67CCCN6C(COC(=O)N6CCOCC6)CC7)nc5c3F)N3CC5CCC(N5)[C@H]3CO4)c12` (stereo in doubt) [Compound 47, (7a-((((5aS,6R,9S)-2-(8-ethynyl-7-fluoronaphthalen-1-yl)-1-fluoro-5a,6,7,8,9,10-hexahydro-5H-4-oxa-3,10a,11,13,14-pentaaza-6,9-methanonaphtho[1,8-ab]heptalen-12-yl)oxy)methyl)hexahydro-1H-pyrrolizin-3-yl)methyl morpholine-4-carboxylate], 6.98.
For the compound `C#Cc1c(F)ccc2cc(O)cc(-c3nc4c5c(nc(OC[C@@]67CCCN6C[C@H](F)C7)nc5c3F)N3C[C@H]5CC[C@H](N5)[C@H]3CO4)c12` [Compound 111, 5-ethynyl-6-fluoro-4-((5aS,6S,9R)-1-fluoro-12-(((2R,7aS)-2-fluorotetrahydro-1H-pyrrolizin-7a(5H)-yl)methoxy)-5a,6,7,8,9,10-hexahydro-5H-4-oxa-3,10a,11,13,14-pentaaza-6,9-methanonaphtho[1,8-ab]heptalen-2-yl)naphthalen-2-ol], the pIC50 under setting [1] is 7.92.
As for `C#Cc1c(F)ccc2cccc(-c3nc4c5c(nc(OCC6(CN7CCO[C@H](C)C7)CC6)nc5c3F)N3C[C@H]5CC[C@H](N5)[C@H]3CO4)c12` [Compound 41, (5aS)-2-(8-ethynyl-7-fluoronaphthalen-1-yl)-1-fluoro-12-((1-(((R)-2-methylmorpholino)methyl)cyclopropyl)methoxy)-5a,6,7,8,9,10-hexahydro-5H-4-oxa-3,10a,11,13,14-pentaaza-6,9-methanonaphtho[1,8-ab]heptalene], under setting [1], the pIC50 was 6.41.
For `C#Cc1c(F)ccc2cccc(-c3nc4c5c(nc(OCC6(CN7CCOC[C@H]7C)CC6)nc5c3F)N3C[C@H]5CC[C@H](N5)[C@H]3CO4)c12` [Compound 42, (5aS)-2-(8-ethynyl-7-fluoronaphthalen-1-yl)-1-fluoro-12-((1-(((R)-3-methylmorpholino)methyl)cyclopropyl)methoxy)-5a,6,7,8,9,10-hexahydro-5H-4-oxa-3,10a,11,13,14-pentaaza-6,9-methanonaphtho[1,8-ab]heptalene], the pIC50 under setting [1] was 6.80.
On to `C#Cc1c(F)ccc2cccc(-c3nc4c5c(nc(C(=O)N[C@H](C)CN(C)C)nc5c3F)N3CC5CCC(N5)[C@H]3CO4)c12` (stereo in doubt) [Compound 33, (5aS,6R,9S)—N—((R)-1-(dimethylamino)propan-2-yl)-2-(8-ethynyl-7-fluoronaphthalen-1-yl)-1-fluoro-5a,6,7,8,9,10-hexahydro-5H-4-oxa-3,10a,11,13,14-pentaaza-6,9-methanonaphtho[1,8-ab]heptalene-12-carboxamide], for which the pIC50 under setting [1] was 7.12.
Regarding `C#Cc1c(F)ccc2cccc(-c3nc4c5c(nc(OC[C@@H]6C[C@@H](F)CN6C)nc5c3F)N3CC5CCC(N5)[C@H]3CO4)c12` (stereo in doubt) [Compound 32, (5aS,6R,9S)-2-(8-ethynyl-7-fluoronaphthalen-1-yl)-1-fluoro-12-(((2S,4R)-4-fluoro-1-methylpyrrolidin-2-yl)methoxy)-5a,6,7,8,9,10-hexahydro-5H-4-oxa-3,10a,11,13,14-pentaaza-6,9-methanonaphtho[1,8-ab]heptalene], under setting [1], the pIC50 was 6.85.
On to `Cc1cc(N)nc(-c2nc3c4c(nc(OC[C@@]56CCCN5C[C@H](F)C6)nc4c2F)N2CC4CCC(N4)[C@H]2CO3)c1C(F)(F)F` (stereo in doubt) [Compound 53, 6-((5aS,6R,9S)-1-fluoro-12-(((2R,7aS)-2-fluorotetrahydro-1H-pyrrolizin-7a(5H)-yl)methoxy)-5a,6,7,8,9,10-hexahydro-5H-4-oxa-3,10a,11,13,14-pentaaza-6,9-methanonaphtho[1,8-ab]heptalen-2-yl)-4-methyl-5-(trifluoromethyl) pyridin-2-amine], for which, under setting [1], the pIC50 is 6.34.
On to `C#Cc1c(F)ccc2cccc(-c3nc4c5c(nc(OCC67CCCN6C(COC(=O)N(C)C)CC7)nc5c3F)N3CC5CCC(N5)[C@H]3CO4)c12` (stereo in doubt) [Compound 37, (7a-((((5aS,6R,9S)-2-(8-ethynyl-7-fluoronaphthalen-1-yl)-1-fluoro-5a,6,7,8,9,10-hexahydro-5H-4-oxa-3,10a,11,13,14-pentaaza-6,9-methanonaphtho[1,8-ab]heptalen-12-yl)oxy)methyl)hexahydro-1H-pyrrolizin-3-yl)methyl dimethylcarbamate], for which the pIC50 (HPAC, 3 h, read-out: p-ERK IC50, PNAC-1/HPAC cell, 3 hours compound incubation) is 7.30.
As for `C#Cc1cccc2cc(O)cc(-c3nc4c5c(nc(OC[C@@]67CCCN6C[C@H](F)C7)nc5c3F)N3C[C@H]5CC[C@H](N5)[C@H]3CO4)c12` [Compound 31, 5-ethynyl-4-((5aS,6S,9R)-1-fluoro-12-(((2R,7aS)-2-fluorotetrahydro-1H-pyrrolizin-7a(5H)-yl)methoxy)-5a,6,7,8,9,10-hexahydro-5H-4-oxa-3,10a,11,13,14-pentaaza-6,9-methanonaphtho[1,8-ab]heptalen-2-yl)naphthalen-2-ol], under setting [1], the pIC50 is 8.10.
For the compound `Oc1cc(-c2nc3c4c(nc(OC[C@@]56CCCN5C[C@H](F)C6)nc4c2F)N2C[C@@H]4CC[C@@H](N4)C2CO3)c2c(Cl)cccc2c1` (stereo partly drawn) [Compound 1, 5-Chloro-4-((6R,9S)-1-fluoro-12-(((2R,7aS)-2-fluorotetrahydro-1H-pyrrolizin-7a(5H)-yl)methoxy)-5a,6,7,8,9,10-hexahydro-5H-4-oxa-3,10a,11,13,14-pentaaza-6,9-methanonaphtho[1,8-ab]heptalen-2-yl)naphthalen-2-ol], the pIC50 under setting [1] was 7.48.
